Here are results for 5 compounds from PubChem BioAssay (NCI).

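Tested at 5 concentrations; 48 h exposure; 96-well plates; endpoints linearly interpolated, else capped at highest concentration. GI50 = concentration required for 50% inhibition of growth. TGI: concentration producing complete growth inhibition.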

Some test systems named below: OVCAR-3 ovarian; MDA-MB-435; SK-MEL-28 melanoma; OVCAR-4 ovarian; M14 melanoma; K-562 leukemia; HS 578T breast; SNB-19 CNS; BT-549 breast; SR leukemia.
Test in all cases: DTP human tumour cell line panel, 48 h

Take `OC1CCN2Cc3ccccc3N=C12` (stereo not drawn): the TGI in the test with OVCAR-3 ovarian, in the test with MDA-MB-435, in the test with SK-MEL-28 melanoma, with OVCAR-4 ovarian, in the test with M14 melanoma and in the test with K-562 leukemia was greater than 100 µM throughout. For the same compound, the concentration for total growth inhibition (TGI) with HS 578T breast, in the test with SNB-19 CNS and in the test with BT-549 breast was greater than 100 µM each time.
Take `CC1OC1C(=O)P(=O)(O)O` (stereo not drawn): the TGI in the test with OVCAR-3 ovarian, in the test on MDA-MB-435, in the test on SK-MEL-28 melanoma, in the test on SR leukemia, with OVCAR-4 ovarian and with M14 melanoma was greater than 100 µM throughout. Also, the TGI with K-562 leukemia, with HS 578T breast, with SNB-19 CNS and in the test with BT-549 breast was greater than 100 µM throughout.
Turning to `COc1ccccc1C1C(C#N)=C(N)SC(N)=C1C#N`, the GI50 in the test on OVCAR-3 ovarian is 62.4 µM; with MDA-MB-435 it was 52.8 µM; in the test on SK-MEL-28 melanoma, 43.3 µM; in the test with SR leukemia, 16.3 µM; with OVCAR-4 ovarian, 81.1 µM; with M14 melanoma it was 91.6 µM. For the same compound, the GI50 with K-562 leukemia was 41.8 µM; with HS 578T breast, greater than 100 µM; in the test with SNB-19 CNS it was greater than 100 µM; in the test with BT-549 breast it was 55.6 µM. Besides, the TGI in the test on OVCAR-3 ovarian was greater than 100 µM; in the test with MDA-MB-435, greater than 100 µM; in the test with SK-MEL-28 melanoma it was greater than 100 µM; in the test with SR leukemia it was 83 µM; with OVCAR-4 ovarian it was greater than 100 µM; in the test on M14 melanoma, greater than 100 µM. In addition, the TGI in the test on K-562 leukemia, in the test on HS 578T breast, with SNB-19 CNS and with BT-549 breast was greater than 100 µM in each case.
In the case of `NCC(=O)N[C@H]1c2ccsc2/C(=N/O)[C@H]1O`, the total growth inhibition concentration (TGI) with OVCAR-3 ovarian, with MDA-MB-435, in the test on SK-MEL-28 melanoma, in the test with SR leukemia, in the test with OVCAR-4 ovarian and with M14 melanoma was greater than 100 µM each time. Also, the TGI with K-562 leukemia and with BT-549 breast was greater than 100 µM throughout.
Take `Cc1ccccc1NC(=O)C(=O)C(C1OC(=O)c2ccccc21)[N+](=O)[O-]` (stereo not drawn): the total growth inhibition concentration (TGI) with SK-MEL-28 melanoma, in the test on SR leukemia, with OVCAR-4 ovarian, with M14 melanoma, in the test with K-562 leukemia and in the test with SNB-19 CNS was greater than 100 µM throughout.
